The record followed here is US20140010939A1, “Sweetness Enhancers, Sweetener Compositions, Methods of Making the Same and Consumables Containing the Same” (Nutrinova Nutrition Specialties & Food Ingredients GmbH, priority 2011, published 2014).

The target in the assay is T1, heterodimeric hT1R2/hT1R3 sweet taste receptor (Homo sapiens, UniProt Q7RTX0+Q8TE23).
T1 construct: expressed in transfected cells
T1 sequence (Q8TE23 20-839): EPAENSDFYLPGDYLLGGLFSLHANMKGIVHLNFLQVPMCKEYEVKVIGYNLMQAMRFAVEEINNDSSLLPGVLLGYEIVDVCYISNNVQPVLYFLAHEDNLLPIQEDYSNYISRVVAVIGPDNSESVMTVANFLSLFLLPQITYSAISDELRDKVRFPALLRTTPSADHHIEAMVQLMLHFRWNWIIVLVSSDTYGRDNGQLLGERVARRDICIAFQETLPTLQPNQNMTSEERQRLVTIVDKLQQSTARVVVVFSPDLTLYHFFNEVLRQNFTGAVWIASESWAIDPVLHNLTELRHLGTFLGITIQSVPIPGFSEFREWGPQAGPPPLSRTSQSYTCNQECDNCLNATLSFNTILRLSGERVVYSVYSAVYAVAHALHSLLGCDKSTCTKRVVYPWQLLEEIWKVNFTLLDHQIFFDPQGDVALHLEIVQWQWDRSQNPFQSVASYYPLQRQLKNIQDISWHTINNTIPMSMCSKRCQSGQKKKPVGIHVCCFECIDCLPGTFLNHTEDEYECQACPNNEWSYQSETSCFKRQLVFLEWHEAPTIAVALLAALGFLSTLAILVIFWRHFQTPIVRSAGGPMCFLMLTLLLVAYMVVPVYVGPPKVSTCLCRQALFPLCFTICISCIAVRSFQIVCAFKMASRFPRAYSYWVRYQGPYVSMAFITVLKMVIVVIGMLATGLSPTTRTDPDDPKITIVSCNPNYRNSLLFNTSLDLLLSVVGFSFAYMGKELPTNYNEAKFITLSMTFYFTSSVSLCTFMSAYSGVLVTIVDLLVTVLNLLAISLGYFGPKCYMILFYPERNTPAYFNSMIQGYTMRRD
T1 sequence (Q7RTX0 21-852): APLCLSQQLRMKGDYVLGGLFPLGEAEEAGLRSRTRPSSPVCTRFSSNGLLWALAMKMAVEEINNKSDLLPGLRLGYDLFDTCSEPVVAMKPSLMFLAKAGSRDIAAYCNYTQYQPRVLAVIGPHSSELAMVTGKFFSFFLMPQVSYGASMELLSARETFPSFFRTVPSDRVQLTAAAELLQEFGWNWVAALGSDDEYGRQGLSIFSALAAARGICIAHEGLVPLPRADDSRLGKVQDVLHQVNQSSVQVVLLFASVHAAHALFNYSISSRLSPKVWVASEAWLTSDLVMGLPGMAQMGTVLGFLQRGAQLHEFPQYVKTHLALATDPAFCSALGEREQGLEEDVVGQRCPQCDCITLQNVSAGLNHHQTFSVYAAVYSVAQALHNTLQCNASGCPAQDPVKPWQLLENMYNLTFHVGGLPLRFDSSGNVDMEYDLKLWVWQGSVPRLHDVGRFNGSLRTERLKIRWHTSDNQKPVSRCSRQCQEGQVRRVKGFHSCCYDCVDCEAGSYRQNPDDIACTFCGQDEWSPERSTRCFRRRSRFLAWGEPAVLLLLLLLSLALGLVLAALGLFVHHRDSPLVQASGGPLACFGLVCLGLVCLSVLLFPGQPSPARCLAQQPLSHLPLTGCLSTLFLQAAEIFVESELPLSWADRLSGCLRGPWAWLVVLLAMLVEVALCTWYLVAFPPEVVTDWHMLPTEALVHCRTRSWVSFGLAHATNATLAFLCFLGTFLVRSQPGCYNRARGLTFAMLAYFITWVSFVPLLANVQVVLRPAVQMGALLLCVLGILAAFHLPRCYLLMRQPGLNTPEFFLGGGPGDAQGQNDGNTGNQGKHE
The assay can be described thus: Recombinant human taste receptor T1R2/T1R3 dependent cell based assay (calcium, Fluo4-AM fluorescence). The method, then:
For measurement of human T1R2/T1R3 taste receptor dependent activity a control cell line without sweet receptor based on HEK 293 and a cell line expressing the sweet receptor hT1R2/hT1R3 based on HEK 293, respectively, are seeded into assay plates and labelled with the calcium sensitive fluorescence dye Fluo4-AM in a culture medium. The potential modulators, e.g. the test compound, are added to the control cell line and to the cell line expressing the sweet receptor hT1R2/hT1R3, respectively.
A stable cell line based on HEK293 was termed HEKα15#17 served as control for functional Ga-protein and a stable cell line HEKGα15#17R2R3b#8 C6 served as cell line expressing the sweet receptor hT1R2/hT1R3 based on HEKGα15#17.
The cells were cultured in DMEM/HG and 10% FCS Gold, 4 mM L-Glutamin, 1,3 mg/ml Geneticin (HEKGα15#17) or the same medium additionally containing 6 μg/ml Blasticidin (HEKGα15#17R2R3b#8 C6). The medium for the assay was DMEM/HG (high glucose, 4.5 g/l glucose, Life Technologies) and 10% FCS Gold, 4 mM L-Glutamin (HEKGα15#17) or DMEM/LG (low glucose, 1 g/l glucose; Life Technologies) and 10% FCS Gold (HEKGα15#17R2R3b#8C6), respectively.
In order to evaluate the sweet receptor modulating activity of the compound of formula (Ia), compound of formula (Ia) was added to the cultures in a concentration of 25 μM in a volume of 50 μl. Controls were KH-buffer (Krebs HEPES-buffer: 118 mM NaCl, 4.7 mM KCl, 1.2 mM MgSO4, 1.2 mM KH2PO4, 4.2 mM NaHCO3, 1.3 mM CaCl2, 10 mM Hepes, pH 7.4) either without or with sweetness enhancer.
Further controls for function of G-protein and receptor were isoproterenol (1 μM, Sigma Aldrich), ionomycin (1 μM, Calbiochem) and ATP (1 μM, Applichem). […]
On day 2 the cells were seeded into assay plates at a density of 25,000 cells/well. Assay plates for fluorescence measurement (black clear bottom 96-cavity plates, Greiner Bio-One) were coated with poly-D-lysine. […]

“Also recorded” adds a separate entry of the source.

On to `CC(=O)N(O)CCCCCNC(=O)C(O)(CC(=O)O)CC(=O)NCCCN(O)C(C)=O` (stereo not drawn) [compound of formula (Ia)], for which, for the setting “25 μM with fructose (20 mM) versus KH buffer/fructose”, the “Enhancement of the activity of fructose (sweetness enhancer activity in vitro)” value is given as “fructose enhancer; also recorded: enhances the activity of fructose”. The “Time response in the cell assay” value (measured over a period of 78 seconds, FIG. 2 / inserted graph) is “selective stimulation of receptor carrying cells”. The “Fluo4-AM fluorescence increase (cellular activation)” value (primary screening, receptor carrying cells only, FIG. 1 sixth bar) was “strong cellular activation”.
